The record followed here is patent US20230391824A1, “RATIONALE, DESIGN, SYNTHESIS AND VALIDATION OF A SMALL MOLECULE ANTICANCER AGENT” (priority 2021, published 2023).

One experiment has as its target T1, Lin28A protein (Homo sapiens, UniProt Q9H9Z2).
T1 construct: in a panel of endogenously LIN28 expressing cancer cell models; endogenous in cells; host or cells: T47D, YP-MEL, BT-12, BT-37, NT-2 (NTERA)
T1 sequence (Q9H9Z2 1-209): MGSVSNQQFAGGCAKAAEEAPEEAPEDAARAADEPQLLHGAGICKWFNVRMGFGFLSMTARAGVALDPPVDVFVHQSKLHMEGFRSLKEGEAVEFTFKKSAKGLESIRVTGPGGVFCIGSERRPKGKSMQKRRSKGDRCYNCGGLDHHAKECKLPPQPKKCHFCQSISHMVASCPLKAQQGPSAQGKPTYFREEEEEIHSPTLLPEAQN
Nature of the experiment: Western blotting of Lin28A protein in cancer cell models. It is filed as cell-based. The method, then: FIG. 5: Compound of formula (I) mixture, containing the two isomers (P1+P2) causes significant reduction in Lin28A protein from 5 μM onwards, in a panel of endogenously LIN28 expressing cancer cell models. […] LIN28A and LIN28B expression profile in pediatric CNS cancer cell lines, 96-hr post-treatment with Compound of formula (I). SDS-PAGE on 10% polyacrylamide gel of total cell lysates from untreated cells harvested at 80-90% confluency. Samples loaded with volumes for 20 μg protein. LIN28A and LIN28B proteins were detected using the anti-LIN28A antibody (#8706; Cell Signaling Technology) and anti-LIN28B antibody (#11965; Cell Signalling Technology) at 1:2000 dilutions. T47D: adult breast cancer (LIN28A expressing); YPMEL: malignant melanoma derived from Neurocutaneous Melanosis (NCM) (Lin28A and Lin28B expressing); BT-12: pediatric atypical-teratoid rhabdoid tumor (AT/RT).
FIG. 7A-C: To determine the differences in the biological activity of the two isomers (P1+P2) of Compound of formula (I), we tested the effects of purified and separated P1 and P2 isomers on the protein expression of Lin28A and Lin28B. (A) YP-MEL (NCM). (B) BT-37 (AT/RT). (C) NT-2 (NTERA) (Testicular cancer).
The proteins were extracted from the same samples as the RNA using the RIPA lysis buffer. The protein extracts (20 μg) were run on 10% SDS-PAGE and transferred on a nitrocellulose blotting membrane 0.22 μm (GE Healthcare) using the Trans-Blot® SD semi-dry transfer devise (Biorad). The proteins were detected using the anti-Lin28A antibody (#8706; Cell Signaling Technology), anti-Lin28B antibody (#11965, Cell Signaling Technology) the anti-beta-actin antibody at respectively 1:2000, 1:2000 and 1:5000 dilutions.
On the technique in general: A western blot detects proteins with antibodies after separation by electrophoresis.

Experiment [1] concerns NT-2 testicular cancer cells. Description: Flow cytometric (propidium iodide) cell cycle analysis of NT-2 cells. It counts as cell-based. The settings on record: first 24h. The procedure: FIG. 9: NT-2, testicular cancer cells, were incubated with Compound of formula (I) isomers for 24h and subjected to Flow Cytometric analysis to determine the alterations in cancer cell cycle. […] Therefore, only the P1 isomer of Compound of formula (I) was investigated further to determine its in vitro and in vivo efficacy.
The method for Propidium Iodide (PI) based cell cycle analysis was performed as per the instructions given by the manufacturer (AB139418; Abcam). Briefly NT-2 cells treated with Compound of formula (I) versions were harvested in single cell suspensions with each experimental condition containing two million cells, fixed in 66% Ethanol overnight at 4° C. The ethanol was removed thoroughly by centrifugation, followed by rehydration of cells in PBS with a repeat of centrifugation. Cells were stained in PI (1%) and RNase solution (1%) in PBS for 30 minutes at 37° C. in the dark. The cells were analyzed immediately on the Flow Cytometer.
(Flow cytometry measures light scatter and fluorescence of single cells or particles in a stream.)

A further experiment concerns NT-2 testicular tumor. Description: NT-2 testicular tumor xenograft in SCID mice. It counts as in vivo. The following applies: male SCID mice; for growth of NT-2 tumors: every 2 days. The method, then:
FIG. 14A-C: Male SCID NT-2 testicular tumor bearing mice treated with 4 mg/kg Compound of formula (I) (P1 version) via oral route of administration (P.O). […] Tumor areas were measured with a Vernier caliper (prior to each treatment cycle). Animals were euthanized when the control (0.1% DMSO:PBS) treated mice reached the defined endpoint of 225 mm^2. Data representative of at least 5 independent experiments. […] (B) is a graph depicting percentage change of tumour volume versus days after the first treatment. (C) is a graph depicting percentage survival versus days after the first treatment.
FIG. 15A-D: Male SCID NT-2 testicular tumor bearing mice treated with 4 mg/kg Compound of formula (I) (P1 version) via intraperitoneal route of administration (I.P). […] Tumor areas were measured with a Vernier caliper (prior to each treatment cycle). Animals were euthanized when the control (0.1% DMSO:PBS) treated mice reached the defined endpoint of 225 mm^2. Data representative of at least 5 independent experiments. […] (B) is a graph depicting percentage of tumour size versus days after the first treatment. (C) is a graph depicting percentage survival versus days after the first treatment. (D) is a photograph showing excised tumours.
FIG. 16A&B: Male SCID NT-2 testicular tumor bearing mice treated with 4 mg/kg Compound of formula (I) (P1 isomer) via intravenous route of administration (I.V). […] Tumor areas were measured with a Vernier caliper (prior to each treatment cycle). Animals were euthanized when the control (0.1% DMSO:PBS) treated mice reached the defined endpoint of 225 mm^2. Data representative of at least 5 independent experiments. (A) is a photograph showing excised tumours. (B) is graph depicting percentage of tumor size versus number of treatments.
All animal procedures were carried out in accordance with the guidelines of the Canadian Council on Animal Care and the NIH guidelines on the care and use of laboratory animals. All protocols were reviewed and approved by the Animal Care Committee of the University of Calgary (Protocol approval number: AC21-0147). Six- to eight-week-old female or male CB17 severe combined immunodeficiency (SCID) mice (Charles River Laboratories, Saint-Constant, QC, Canada) were subcutaneously injected in the right flank with 3×10^6 YP-MEL or NT-2 cells suspended in 0.1 mL sterile PBS. After tumor injection, animals with detectable tumor growth of at least 50 mm^2 were randomized into groups. The groups were treated with either 0.1% DMSO:PBS vehicle or 4 mg/kg of Compound of formula (I) dissolved in the vehicle, intraperitoneally (I.P), orally (P.O) or intravenously (I.V). Animals and respective cages were monitored for food and bedding supplies daily; doses were injected every 2 days and tumor areas were measured with a Vernier caliper (prior to each treatment cycle). When vehicle treated tumors reached the defined endpoint of 225 mm^2, every mouse in the group were euthanized. Tumors were excised and immediately imaged and processed for western blotting or fixed in paraformaldehyde for toxicology evaluation. (A)

For `CC[C@H](C)[C@H](NC(=O)[C@H](Cc1ncc[nH]1)NC(=O)c1cccc(C(N)=O)c1)C(=O)Nc1ccc(O)c(-c2nc3ccccc3s2)c1` [Compound P1], on Lin28A protein (Lin28A inhibition, FIG. 7 versus FIG. 5), the “selectivity relative to the crude mixture containing P1+P2” value is 5 times. Further, the “concentration from which Lin28A is selectively inhibited” value on Lin28A protein (YP-MEL, BT-37, NT-2 cells) was at least 1 µM. In addition, in experiment [1], the “share of total cell count that had undergone cell death” value is “approximately 10%”. The “treated animals that survived tumor-free for 120 days” value with NT-2 testicular tumor (4 mg/kg I.P) is on record as “at least 50%”. For the same compound, the “growth of NT-2 tumors” value with NT-2 testicular tumor (4 mg/kg I.P), in the experiment on NT-2 testicular tumor (4 mg/kg I.V) and in the experiment on NT-2 testicular tumor (4 mg/kg P.O) was “significantly reduced the growth” in each case. Besides, the tumor shrinkage result in the experiment on NT-2 testicular tumor (4 mg/kg I.V, with only 4 doses) was “in some cases showed complete shrinkage”.
